Consider nine compounds from publication PMC11769294, “(E)-1-(3-(3-Hydroxy-4-Methoxyphenyl)-1-(3,4,5-Trimethoxyphenyl)allyl)-1H-1,2,4-Triazole and Related Compounds: Their Synthesis and Biological Evaluation as Novel Antimitotic Agents Targeting Breast Cancer” (Pharmaceuticals, 2025).

Read-outs that look alike come from different tables or passages of the source.

As usually defined, the IC50 is the midpoint of a concentration-inhibition curve.

Assay [1] concerns K562 human chronic myelogenous leukemia cell line. On the set-up: method as in PMID 19837593. Conditions: cited from earlier work.
For assay [2], the system named is MCF-7 breast cancer cells. The experiment in a line: alamarBlue cell viability assay. The format is cell-based. As to conditions: Homo sapiens. On the procedure: Figure 5 Preliminary cell viability data for Series 1: (A) compounds 22a–22g and chalcone 20b and Series 2: (B) compounds 23a–e and chalcone 20b in MCF-7 breast cancer cells. Cell proliferation of MCF-7 cells was determined with an alamarBlue assay (seeding density 2.5 × 10^4 cells/mL per well for 96-well plates). Compound concentrations of either 1 or 0.1 μM for 72 h were used to treat the cells (in triplicate) with control wells containing vehicle ethanol (1% v/v). The mean value ± SEM for three independent experiments is shown. The positive controls used are CA-4 and phenstatin (1.0 μM and 0.1 μM). Statistical analysis was performed using One-way ANOVA with the Sidak multiple comparison test (***, p < 0.001).
HL-60 cells were suspension cells and the seeding density for the viability assay was 25,000 cells/mL. MCF-7 cells (adherent) were cultured in Minimum Essential Media (MEM) with GlutaMAX™-I, supplemented with 1% (v/v) non-essential amino acids, 10% (v/v) fetal bovine serum (FBS), purchased from BD Biosciences (Edmund Halley Road, Oxford, UK), and 1% (v/v) penicillin/streptomycin 5000 U/mL. The MCF-7 cells used in the screening of the compounds during these experiments were mycoplasma-free. The seeding density of MCF-7 in the viability assay was 25,000 cells/mL and 50,000 cells/mL in the FACS assay. Normal breast cells (MCF-10A) (adherent) were cultured in Dulbecco’s Modified Eagle Medium: Nutrient Mixture F-12 (DMEM/F12; Gibco) supplemented with 5% horse serum (Invitrogen, Waltham, MA, USA), 20 ng/mL epidermal growth factor (Merck Millipore, Burlington, MA, USA), 0.5 μg/mL hydrocortisone (Sigma, Kanagawa, Japan), 100 ng/mL cholera toxin (Sigma), 10 μg/mL insulin (Sigma), and penicillin/streptomycin 5000 U/mL (1%) (Gibco, Waltham, MA, USA). […] MDA-MB-231 cells were cultured in Dulbecco’s Modified Eagle Medium, which was supplemented with 10% (v/v) fetal bovine serum (FBS) and 1% (v/v) penicillin/streptomycin 5000 U/mL. When not in use, all cells were kept in liquid nitrogen and frozen in a freezing media made of 90% FBS and 10% DMSO. All cells were grown in an atmosphere of 5% CO2/95% air in T75 culture flasks. The media was changed every 2–3 days and media was always prewarmed to 37 °C. All were sub-cultured every 3–4 days by trypsinization using TrypLE™ Express enzyme when confluence was reached to allow growth, prevent excessive cell death, and minimize the risk of infections derived by over-confluence. For the cell viability assay, the number of cells per milliliter was 25,000 cells/mL while the FACS assay utilized 50,000 cells/mL. Cells were maintained at 37 °C in 5% CO2 in a humidified incubator.
The biochemical assays were performed in triplicate and on at least three independent occasions to facilitate the determination of mean values. For the viability assay, cells were grown until 80% confluent. Adherent cells such as MCF-7, MDA-MB-231, and MCF-10A were trypsinized to detach them from the flask, counted as previously described, and seeded in 96 well plates with a seeding density of 25,000 cells /mL (200 µL of suspension in each well so that the final number of cells per well was 5000) and 1 × 10^4 cells/well seeding density for suspension HL-60 cells. Adherent cells were incubated for 24 h after being seeded in the 96 well plate and treated on the following day, while suspension cells were treated on the same day of the seeding. In both cases, the incubation time after the treatment with the drug was 72 h. After 68 h incubation, the AlamarBlue was added (20 µL in each well) and the incubation time was completed. After 72 h, the change in color was measured by spectrofluorimetry at an excitation wavelength of 544 nm and emission wavelength of 590 nm. AlamarBlue is a cell viability indicator containing a compound called resazurin. AlamarBlue is water soluble, stable in culture media, non-toxic, and is permeable through the cell membrane. […]
For orientation: The colour change of resazurin is a common sign of viable cells or microbes.

Assay [3] concerns tubulin in MCF-7 breast cancer cells. The experiment in a line: Immunofluorescence confocal microscopy of microtubules. Conditions: 16 h, 22b 10 μM, paclitaxel and phenstatin 1 μM. In kind it is cell-based, human. On the procedure: Briefly, the MCF-7 cells were seeded at a density of 1 × 10^5 cells/mL on eight chamber glass slides (BD Biosciences). […] The cells were then washed in PBS, fixed for 20 min with 4% paraformaldehyde in PBS, and permeabilized in 0.5% Triton X-100. […] Images of the cells were obtained using Leica SP8 confocal microscopy (Wetzlar, Germany) with Leica application suite X software (Wetzlar, Germany). Experiments were performed on three independent occasions.
The micrograph images were obtained with Leica SP8 confocal microscopy utilizing Leica application suite X software. Representative confocal images of three separate experiments are shown. The scale bar indicates 25 μm.

The subject of assay [4] is purified bovine brain tubulin. On the set-up: method as in PMID 33671674. As to conditions: 10 μM; cited from earlier work.
The test system of assay [5] is MCF-7 breast cancer cells. Conditions: cited from earlier work.
Assay [6] concerns MDA-MB-231 breast cancer cells. On the set-up: method as in PMID 33671674. Conditions: cited from earlier work.
Assay [7] concerns MCF-7 breast cancer cells. On the set-up: method as in PMID 33671674. Conditions: cited from earlier work.
The test system of another assay is MCF-7 cells. On the set-up: method as in PMID 33671674. Conditions: 1 μM, cited from earlier work.
Assay [8] relates to MDA-MB-231 breast cancer cells. Conditions: reported values; cited from earlier work.
A further assay concerns HL-60 cells. As to conditions: reported values; cited from earlier work.
Setting [9] is: MCF7, MCF-7, 1 μM, 72 h, read-out: viable cells.

On to `COc1ccc(/C=C(\C)C(=O)c2cc(OC)c(OC)c(OC)c2)cc1O` [Compound 16a], for which the IC50 in assay [1] is 0.21 nM.

Turning to `COc1ccc(C(=O)c2cc(OC)c(OC)c(OC)c2)cc1O` [phenstatin], the viability at 1 µM in assay [2] (MCF7, 72 h, read-out: viable cells) was 30%. Besides, the “effect on microtubule network” value in assay [3] was “depolymerization of tubulin”. Moreover, the “reduction in the polymer mass vs vehicle” value in [4] is on record as 10 fold. The IC50 in assay [5] was 34 nM. In addition, the total apoptosis in assay [6] (0.1 μM) is 16.6%; in assay [6] (0.5 μM), 17.9%; in assay [7] (0.1 μM) it was 36.1%; in assay [7] (0.5 μM) it was 46%. In addition, the results for the “cells in G2/M phase” value with MCF-7 cells (24 h), with MCF-7 cells (48 h) and in the assay with MCF-7 cells (72 h) were 65%, 57% and 51%, respectively. In addition, the “cells in apoptosis (sub-G1)” value in the assay on MCF-7 cells (72 h) is given as 18%.

With `COc1cc(/C=C/C(c2cc(OC)c(OC)c(OC)c2)n2cncn2)cc(OC)c1OC` (stereo not shown) [Compound 22c, (E)-1-(1,3-Bis(3,4,5-trimethoxyphenyl)allyl)-1H-1,2,4-triazole], the viability at 1 µM in assay [2] (setting [9]) amounted to 70%.

In assay [2] (MCF7, MCF-7, 72 h), `COc1ccc(/C=C/C(=O)c2cc(OC)c(OC)c(OC)c2)cc1O` [Compound 20b, (E)-3-(3-hydroxy-4-methoxyphenyl)-1-(3,4,5-trimethoxyphenyl)prop-2-en-1-one, reference compound] came in with an IC50 of 67 ± 17 nM.

As to `COc1ccc(/C=C\c2cc(OC)c(OC)c(OC)c2)cc1O` [CA-4, combretastatin CA-4], the viability at 1 µM in [2] (setting [9]) is 24%. Moreover, the IC50 in assay [8] was 43 nM; in [5], 4 nM; in assay [5] (reported values) it was 3.9 ± 0.32 nM; in the assay with HL-60 cells, 1.9 ± 0.5 nM.

On to `C(=C\C(c1ccncc1)n1ccnc1)/c1c2ccccc2cc2ccccc12` (stereo not shown) [Compound 33b, (E)-4-(3-(Anthracen-9-yl)-1-(1H-imidazol-1-yl)allyl)pyridine], for which the viability at 1 µM in assay [2] (setting [9]) was 92%.

For the compound `CC(=O)O[C@H]1C(=O)[C@@]2(C)[C@H]([C@H](OC(=O)c3ccccc3)[C@]3(O)C[C@H](OC(=O)[C@H](O)[C@@H](NC(=O)c4ccccc4)c4ccccc4)C(C)=C1C3(C)C)[C@]1(OC(C)=O)CO[C@@H]1C[C@@H]2O` [paclitaxel], the “effect on microtubule network” value in assay [3] is “hyperpolymerization of tubulin”.

With `COc1ccc(/C=C/C(c2cc(OC)c(OC)c(OC)c2)n2cncn2)cc1OC` (stereo not shown) [Compound 22d, (E)-1-(3-(3,4-Dimethoxyphenyl)-1-(3,4,5-trimethoxyphenyl)allyl)-1H-1,2,4-triazole], the viability at 1 µM in [2] (setting [9]) was 74%.

Consider `COc1ccc(C2CC(=O)c3cc(OC)c(OC)c(OC)c32)cc1O` (stereo not shown) [Compound 24a, 3-(3-Hydroxy-4-methoxyphenyl)-4,5,6-trimethoxy-2,3-dihydro-1H-inden-1-one, reference compound], for which, in assay [2] (MCF7, MCF-7, 0.1 μM, 72 h, read-out: viable cells), the viability at 0.1 µM turned out to be 70%. Besides, the viability at 1 µM in assay [2] (setting [9]) is 35%.
